Measurements taken from ChEMBL document CHEMBL1201862, “PubChem BioAssay data set” (2004).
Calls of active or inactive are those of the source.

Assays:
[1] = target: T1, Corticotropin-releasing factor receptor 2/Corticotropin-releasing factor-binding protein (Homo sapiens, UniProt P24387+Q13324); assay: Dose Response confirmation of uHTS hits for small molecule antagonists of the CRF-binding protein and CRF-R2 receptor complex.; format: functional; settings: read-out: IC50_Mean
T1 sequence (Q13324 whole entry): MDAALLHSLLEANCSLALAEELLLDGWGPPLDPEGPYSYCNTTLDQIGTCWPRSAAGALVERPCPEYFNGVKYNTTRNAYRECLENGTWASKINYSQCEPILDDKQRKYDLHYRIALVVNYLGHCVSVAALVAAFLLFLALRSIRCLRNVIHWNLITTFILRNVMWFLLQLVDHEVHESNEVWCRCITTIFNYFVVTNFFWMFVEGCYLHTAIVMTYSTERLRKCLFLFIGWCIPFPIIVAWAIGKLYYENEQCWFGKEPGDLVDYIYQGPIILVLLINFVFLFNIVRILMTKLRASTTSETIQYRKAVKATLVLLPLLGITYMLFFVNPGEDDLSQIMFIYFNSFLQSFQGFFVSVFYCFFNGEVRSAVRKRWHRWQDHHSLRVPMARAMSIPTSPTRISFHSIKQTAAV
T1 sequence (P24387 whole entry): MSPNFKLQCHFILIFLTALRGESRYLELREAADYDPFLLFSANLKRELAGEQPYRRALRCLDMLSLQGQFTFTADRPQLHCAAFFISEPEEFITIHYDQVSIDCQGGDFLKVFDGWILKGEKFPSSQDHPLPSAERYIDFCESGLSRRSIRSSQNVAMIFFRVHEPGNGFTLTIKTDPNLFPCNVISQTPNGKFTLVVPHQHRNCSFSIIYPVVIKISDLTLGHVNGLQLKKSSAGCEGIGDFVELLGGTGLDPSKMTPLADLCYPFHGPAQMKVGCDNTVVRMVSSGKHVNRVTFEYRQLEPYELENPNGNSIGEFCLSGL

[2] = target: T1, Corticotropin-releasing factor receptor 2/Corticotropin-releasing factor-binding protein; assay: activators of CRF receptor 2 with binding protein – uHTS hits, confirmation (AID 602473); format: functional; settings: read-out: EC50_Mean
[3] = blockers of CRF-binding protein–CRF-R2 complex – cell-based, uHTS hits, 384-well, dose response (AID 651639); format: functional, Homo sapiens; settings: read-out: IC50_Mean
[4] = A549 cell cytotoxicity, dose response, cytotoxicity control, plate reader, cherry-pick, antagonist series (AID 743412); format: functional, cell-based
[5] = toxicity toward HepG2 liver cells – cell-based, plate reader, cherry-pick, antagonist series, cytotoxicity control, dose response (AID 743416); format: functional
[6] = blockers of bursicon-stimulated LGR2 cAMP reporter – cell-based, HEK293, CRE-luciferase reporter, cherry pick, set 2, dose response (AID 743343); format: functional;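 also: transfected cells were stimulated with diluted bursicon conditioned medium after compound addition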
[7] = viability loss in HEK293 cells – cell-based, plate reader, cherry-picked samples, cytotoxicity control, dose response (AID 743446); format: functional
[8] = cells; format: functional, cell-based
[9] = target: T2, Nuclear receptor subfamily 0 group B member 1 (Homo sapiens, UniProt P51843); format: functional, cell-based;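 also: HEK293T cells transfected with SF-1 and DAX-1 plus StAR promoter luciferase reporter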
T2 sequence (P51843 whole entry): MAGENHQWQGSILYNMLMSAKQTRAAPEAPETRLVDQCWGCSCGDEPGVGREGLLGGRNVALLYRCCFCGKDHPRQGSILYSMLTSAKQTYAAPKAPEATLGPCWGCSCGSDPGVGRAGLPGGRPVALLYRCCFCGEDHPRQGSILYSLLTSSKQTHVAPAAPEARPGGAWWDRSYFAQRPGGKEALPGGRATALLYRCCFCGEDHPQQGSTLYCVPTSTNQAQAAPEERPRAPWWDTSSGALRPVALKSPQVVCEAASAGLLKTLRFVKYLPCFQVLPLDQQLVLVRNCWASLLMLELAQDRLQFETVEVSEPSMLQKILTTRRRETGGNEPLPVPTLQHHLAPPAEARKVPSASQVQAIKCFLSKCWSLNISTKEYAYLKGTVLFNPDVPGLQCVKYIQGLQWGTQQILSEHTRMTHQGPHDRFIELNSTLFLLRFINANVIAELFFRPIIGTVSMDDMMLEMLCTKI

[10] = target: T3, Low molecular weight phosphotyrosine protein phosphatase (Homo sapiens, UniProt P24666); format: functional; settings: read-out: IC50_Mean
T3 sequence (P24666 whole entry): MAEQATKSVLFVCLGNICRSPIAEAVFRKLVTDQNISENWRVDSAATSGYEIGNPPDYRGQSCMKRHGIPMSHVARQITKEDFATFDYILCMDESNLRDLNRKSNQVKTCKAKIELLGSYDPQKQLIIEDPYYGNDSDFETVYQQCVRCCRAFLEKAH

[11] = target: T3, Low molecular weight phosphotyrosine protein phosphatase; format: functional; settings: read-out: IC50_Mean; remark: listed apart in the source
[12] = target: Induced myeloid leukemia cell differentiation protein Mcl-1 (Homo sapiens, UniProt Q07820); format: functional
Chain of Induced myeloid leukemia cell differentiation protein Mcl-1 (Q07820 whole entry): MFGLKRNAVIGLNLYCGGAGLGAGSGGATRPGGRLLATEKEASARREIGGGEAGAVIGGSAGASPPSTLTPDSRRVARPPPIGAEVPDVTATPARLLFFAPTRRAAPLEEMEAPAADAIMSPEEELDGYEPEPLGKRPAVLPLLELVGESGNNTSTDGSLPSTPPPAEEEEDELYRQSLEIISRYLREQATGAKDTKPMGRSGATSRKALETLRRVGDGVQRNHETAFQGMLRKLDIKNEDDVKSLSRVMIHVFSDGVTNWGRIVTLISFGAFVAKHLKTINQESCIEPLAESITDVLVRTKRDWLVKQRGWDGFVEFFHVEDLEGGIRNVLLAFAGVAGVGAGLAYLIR

[13] = target: Long-chain-fatty-acid--AMP ligase FadD28 (Mycobacterium tuberculosis, UniProt P9WQ59); assay: Fluorescence polarization aasay to screen for inhibitors that compete for the binding of FadD28 to a bisubstrate Measured in Biochemical System Using Plate Reader - 2147-01_Inhibitor_Dose_CherryPick_Activity.; format: functional, Mycobacterium tuberculosis H37Rv
Chain of Long-chain-fatty-acid--AMP ligase FadD28 (P9WQ59 whole entry): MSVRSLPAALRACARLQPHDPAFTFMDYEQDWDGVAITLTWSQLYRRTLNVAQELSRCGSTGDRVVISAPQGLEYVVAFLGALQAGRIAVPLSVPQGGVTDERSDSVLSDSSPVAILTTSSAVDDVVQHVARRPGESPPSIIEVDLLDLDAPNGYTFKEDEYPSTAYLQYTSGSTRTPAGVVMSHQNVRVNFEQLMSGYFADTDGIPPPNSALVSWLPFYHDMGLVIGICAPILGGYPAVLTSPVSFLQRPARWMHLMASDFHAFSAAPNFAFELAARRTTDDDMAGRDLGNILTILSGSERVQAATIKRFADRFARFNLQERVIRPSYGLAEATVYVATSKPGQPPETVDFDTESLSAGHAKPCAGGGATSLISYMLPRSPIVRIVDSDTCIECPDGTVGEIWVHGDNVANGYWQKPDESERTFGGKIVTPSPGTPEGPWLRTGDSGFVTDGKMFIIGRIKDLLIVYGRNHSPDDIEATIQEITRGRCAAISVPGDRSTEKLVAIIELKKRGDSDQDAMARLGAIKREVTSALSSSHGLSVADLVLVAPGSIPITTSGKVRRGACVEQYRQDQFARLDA

[14] = target: DNA dC->dU-editing enzyme APOBEC-3A (Homo sapiens, UniProt P31941); assay: Dose Response confirmation of small molecule APOBEC3A DNA Deaminase Inhibitors via a fluorescence-based single-stranded DNA deaminase assay. [Related pubchem assays (depositor defined):AID493011, AID493024]; format: functional
Chain of DNA dC->dU-editing enzyme APOBEC-3A (P31941 whole entry): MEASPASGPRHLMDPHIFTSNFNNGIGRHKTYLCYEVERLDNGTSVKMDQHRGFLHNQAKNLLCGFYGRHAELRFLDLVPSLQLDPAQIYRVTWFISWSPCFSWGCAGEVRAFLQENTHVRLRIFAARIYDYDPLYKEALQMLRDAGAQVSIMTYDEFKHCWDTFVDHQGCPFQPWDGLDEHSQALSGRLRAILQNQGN

[15] = target: DNA dC->dU-editing enzyme APOBEC-3G (Homo sapiens, UniProt Q9HC16); format: functional;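 also: Dose-response counterscreen measuring inhibition of APOBEC3G DNA deaminase activity, run while confirming APOBEC3A inhibitors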
Chain of DNA dC->dU-editing enzyme APOBEC-3G (Q9HC16 whole entry): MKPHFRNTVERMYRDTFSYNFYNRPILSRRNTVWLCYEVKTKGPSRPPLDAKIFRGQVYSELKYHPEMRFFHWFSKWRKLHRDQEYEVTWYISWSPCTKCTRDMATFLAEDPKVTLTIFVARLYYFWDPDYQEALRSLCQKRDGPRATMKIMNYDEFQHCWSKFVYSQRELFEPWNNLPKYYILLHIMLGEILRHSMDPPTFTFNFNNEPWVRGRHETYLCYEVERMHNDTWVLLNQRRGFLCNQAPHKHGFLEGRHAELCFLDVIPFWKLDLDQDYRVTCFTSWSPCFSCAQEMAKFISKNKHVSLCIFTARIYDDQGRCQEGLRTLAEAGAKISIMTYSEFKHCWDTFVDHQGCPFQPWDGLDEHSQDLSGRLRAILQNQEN

[16] = target: T4, Small ubiquitin-related modifier 1 (Homo sapiens, UniProt P63165); assay: SUMO1 protein interaction blockers, potency – biochemical, fluorescence polarization, uHTS hits, dose response (AID 624382); format: functional; settings: read-out: IC50_Mean
T4 sequence (P63165 whole entry): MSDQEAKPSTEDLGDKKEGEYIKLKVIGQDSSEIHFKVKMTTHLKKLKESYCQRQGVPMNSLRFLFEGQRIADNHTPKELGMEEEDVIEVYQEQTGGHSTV

[17] = target: T4, Small ubiquitin-related modifier 1; assay: SUMO1 protein-protein binding blockers, potency – biochemical, FRET, dose response (AID 624383); format: functional; settings: read-out: IC50_Mean
[18] = target: Photoreceptor-specific nuclear receptor (Homo sapiens, UniProt Q9Y5X4); format: functional, cell-based;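 also: CHO-S cells with Gal4-NCOR and VP16-NR2E3 two-hybrid luciferase reporter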
Chain of Photoreceptor-specific nuclear receptor (Q9Y5X4 whole entry, the tested form may be a part): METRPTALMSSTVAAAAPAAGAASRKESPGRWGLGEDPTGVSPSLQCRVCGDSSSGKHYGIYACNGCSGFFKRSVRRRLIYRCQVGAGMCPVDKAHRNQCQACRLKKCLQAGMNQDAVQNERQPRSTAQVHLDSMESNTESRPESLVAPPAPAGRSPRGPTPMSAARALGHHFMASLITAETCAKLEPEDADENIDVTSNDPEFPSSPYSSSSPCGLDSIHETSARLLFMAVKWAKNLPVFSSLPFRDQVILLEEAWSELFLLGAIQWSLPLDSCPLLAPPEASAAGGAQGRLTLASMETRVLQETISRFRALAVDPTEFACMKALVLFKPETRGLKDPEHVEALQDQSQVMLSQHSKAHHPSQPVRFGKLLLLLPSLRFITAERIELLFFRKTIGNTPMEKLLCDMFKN

[19] = target: T5, Protein skinhead-1 (Caenorhabditis elegans, UniProt P34707); format: functional
T5 sequence (P34707 whole entry): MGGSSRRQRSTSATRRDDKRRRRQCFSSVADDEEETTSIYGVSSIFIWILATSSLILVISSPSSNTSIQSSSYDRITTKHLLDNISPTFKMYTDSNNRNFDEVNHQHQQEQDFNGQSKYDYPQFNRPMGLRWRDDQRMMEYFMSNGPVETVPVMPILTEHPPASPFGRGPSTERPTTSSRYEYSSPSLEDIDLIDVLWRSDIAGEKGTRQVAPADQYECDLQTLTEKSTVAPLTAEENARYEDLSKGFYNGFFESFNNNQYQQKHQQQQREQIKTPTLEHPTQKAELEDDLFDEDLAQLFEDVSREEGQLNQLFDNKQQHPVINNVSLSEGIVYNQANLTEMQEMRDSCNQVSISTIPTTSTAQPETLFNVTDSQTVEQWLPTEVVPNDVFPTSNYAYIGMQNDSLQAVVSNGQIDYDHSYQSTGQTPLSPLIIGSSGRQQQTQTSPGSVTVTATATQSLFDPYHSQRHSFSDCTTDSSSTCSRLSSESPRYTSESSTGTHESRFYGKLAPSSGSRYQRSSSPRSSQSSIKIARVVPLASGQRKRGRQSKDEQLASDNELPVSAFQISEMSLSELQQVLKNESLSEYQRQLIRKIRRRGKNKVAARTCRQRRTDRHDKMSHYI

[20] = target: Paired box protein Pax-8 (Homo sapiens, UniProt Q06710); assay: PAX8 transcriptional activity inhibition in RMG-I – RMG-I cells, luciferase, cherry-pick, dose response (AID 687027); format: functional, cell-based;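 also: luciferase reporter driven by Pax8 target thyroperoxidase promoter measured by SteadyGlo luminescence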
Chain of Paired box protein Pax-8 (Q06710 whole entry): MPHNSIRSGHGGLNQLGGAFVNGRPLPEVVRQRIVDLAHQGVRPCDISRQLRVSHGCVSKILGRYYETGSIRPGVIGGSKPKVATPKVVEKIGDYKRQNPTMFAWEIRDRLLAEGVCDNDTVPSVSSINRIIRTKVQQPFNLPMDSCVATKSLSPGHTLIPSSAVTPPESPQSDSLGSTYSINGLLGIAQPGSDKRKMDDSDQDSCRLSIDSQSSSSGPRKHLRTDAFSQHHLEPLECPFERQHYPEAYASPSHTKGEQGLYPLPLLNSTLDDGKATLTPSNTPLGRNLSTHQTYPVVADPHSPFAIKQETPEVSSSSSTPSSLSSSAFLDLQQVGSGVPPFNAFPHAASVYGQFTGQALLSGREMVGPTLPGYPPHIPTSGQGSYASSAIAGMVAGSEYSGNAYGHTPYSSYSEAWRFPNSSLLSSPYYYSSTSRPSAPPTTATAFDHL

[21] = OVCAR-3 cell viability loss – plate reader, dry powder samples, PAX8 inhibitor project, dose response (AID 743044); format: functional, cell-based
[22] = OVCAR8 cell viability loss – plate reader, dry powder samples, PAX8 project, dose response (AID 743197); format: functional, cell-based; settings: OVCAR-8
[23] = IGROV1 cell killing – plate reader, dry powder samples, PAX8 inhibitor project, dose response (AID 743043); format: functional, cell-based; settings: IGROV-1
[24] = target: NS3 (Hepatitis C virus, UniProt A3EZJ3); assay: NS3h DNA-binding inhibition IC50 – biochemical, fluorescence polarization, ChemBridge library, dose response (AID 743264)
Chain of NS3 (A3EZJ3 whole entry): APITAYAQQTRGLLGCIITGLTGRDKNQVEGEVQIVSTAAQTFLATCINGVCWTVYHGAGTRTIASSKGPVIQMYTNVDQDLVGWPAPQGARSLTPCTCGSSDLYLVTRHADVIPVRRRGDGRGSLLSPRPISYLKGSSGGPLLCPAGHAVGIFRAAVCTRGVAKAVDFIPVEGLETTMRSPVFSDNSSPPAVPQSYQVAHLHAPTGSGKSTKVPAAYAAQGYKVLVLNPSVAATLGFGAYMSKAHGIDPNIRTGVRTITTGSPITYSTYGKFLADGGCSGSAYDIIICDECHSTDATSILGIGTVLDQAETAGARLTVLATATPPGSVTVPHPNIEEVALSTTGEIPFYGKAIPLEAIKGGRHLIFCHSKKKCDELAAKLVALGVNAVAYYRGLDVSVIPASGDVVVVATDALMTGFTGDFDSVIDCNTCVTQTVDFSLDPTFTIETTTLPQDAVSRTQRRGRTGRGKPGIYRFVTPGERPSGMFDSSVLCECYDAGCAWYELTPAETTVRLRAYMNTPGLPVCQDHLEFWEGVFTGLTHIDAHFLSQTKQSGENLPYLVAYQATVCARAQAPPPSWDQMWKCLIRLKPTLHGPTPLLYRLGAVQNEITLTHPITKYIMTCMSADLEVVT

[25] = CTGF mRNA reduction in DLD1 cells – cell-based, DLD1 colon cancer, RT-qPCR, cherry-pick, dose response (AID 1053122); format: functional; settings: Cancer cell lines
[26] = Dd2 parasite growth inhibition in erythrocytes – SYBR Green, dry powder samples, set 9, dose response (AID 1159568); format: functional, cell-based
[27] = target: Disintegrin and metalloproteinase domain-containing protein 17 (Homo sapiens, UniProt P78536); assay: exosite inhibitors of ADAM17, dose response, biochemical (AID 743260)
Chain of Disintegrin and metalloproteinase domain-containing protein 17 (P78536 whole entry, the tested form may be a part): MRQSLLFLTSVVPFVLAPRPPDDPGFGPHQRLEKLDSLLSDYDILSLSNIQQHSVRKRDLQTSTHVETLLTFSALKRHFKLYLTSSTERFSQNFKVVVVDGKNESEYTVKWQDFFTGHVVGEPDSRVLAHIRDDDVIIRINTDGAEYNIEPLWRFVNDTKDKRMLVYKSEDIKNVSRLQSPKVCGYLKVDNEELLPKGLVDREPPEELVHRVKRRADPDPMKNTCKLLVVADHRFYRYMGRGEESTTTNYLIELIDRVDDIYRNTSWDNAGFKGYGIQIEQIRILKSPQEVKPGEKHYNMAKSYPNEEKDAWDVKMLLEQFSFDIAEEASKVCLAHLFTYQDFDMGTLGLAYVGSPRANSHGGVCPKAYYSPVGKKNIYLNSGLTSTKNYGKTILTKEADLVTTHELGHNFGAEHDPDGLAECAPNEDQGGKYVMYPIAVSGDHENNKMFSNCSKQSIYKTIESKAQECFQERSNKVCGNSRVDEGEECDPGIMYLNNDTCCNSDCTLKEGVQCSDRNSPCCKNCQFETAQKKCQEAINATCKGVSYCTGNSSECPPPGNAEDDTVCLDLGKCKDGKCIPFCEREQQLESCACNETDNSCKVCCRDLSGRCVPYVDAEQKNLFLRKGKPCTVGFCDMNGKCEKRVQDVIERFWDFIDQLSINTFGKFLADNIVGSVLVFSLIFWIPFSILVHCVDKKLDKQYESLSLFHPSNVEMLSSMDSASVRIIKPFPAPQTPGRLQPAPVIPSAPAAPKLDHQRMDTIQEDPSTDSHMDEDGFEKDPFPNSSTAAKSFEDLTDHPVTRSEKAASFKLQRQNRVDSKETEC

[28] = tested on: Vero; assay: viability of Vero cells under compound – cytotoxicity control for flavivirus capping enzyme inhibitors (AID 588742); format: functional; settings: Chlorocebus sabaeus
[29] = target: Genome polyprotein (dengue virus type 2, UniProt P29990); assay: flavivirus cap methylation enzyme inhibition – biochemical, confirmation dose response, primary screen (AID 588689); format: functional
[30] = target: T6, Carboxy-terminal domain RNA polymerase II polypeptide A small phosphatase 1 (Homo sapiens, UniProt Q9GZU7); assay: CTDSP1 inhibitors, concentration-response, biochemical, absorbance readout, ultra-high-throughput screen actives (AID 540297); format: functional
T6 sequence (Q9GZU7 whole entry): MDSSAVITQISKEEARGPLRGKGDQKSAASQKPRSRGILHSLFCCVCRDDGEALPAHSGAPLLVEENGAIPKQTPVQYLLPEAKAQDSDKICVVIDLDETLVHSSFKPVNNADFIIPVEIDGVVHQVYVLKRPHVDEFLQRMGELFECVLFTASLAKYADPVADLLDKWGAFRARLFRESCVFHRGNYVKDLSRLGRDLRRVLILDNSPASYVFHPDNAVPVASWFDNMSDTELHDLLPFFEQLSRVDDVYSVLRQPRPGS

[31] = target: T7, Polyadenylate-binding protein 1 (Homo sapiens, UniProt P11940); assay: MLLE binding blockers, Cy5 peptide tracer – biochemical, fluorescence polarization, Cy5-PAM2 peptide, secondary, miRNA deadenylation inhibitor project, dose response (AID 602260); format: functional; settings: read-out: IC50_Mean
T7 sequence (P11940 whole entry, the tested form may be a part): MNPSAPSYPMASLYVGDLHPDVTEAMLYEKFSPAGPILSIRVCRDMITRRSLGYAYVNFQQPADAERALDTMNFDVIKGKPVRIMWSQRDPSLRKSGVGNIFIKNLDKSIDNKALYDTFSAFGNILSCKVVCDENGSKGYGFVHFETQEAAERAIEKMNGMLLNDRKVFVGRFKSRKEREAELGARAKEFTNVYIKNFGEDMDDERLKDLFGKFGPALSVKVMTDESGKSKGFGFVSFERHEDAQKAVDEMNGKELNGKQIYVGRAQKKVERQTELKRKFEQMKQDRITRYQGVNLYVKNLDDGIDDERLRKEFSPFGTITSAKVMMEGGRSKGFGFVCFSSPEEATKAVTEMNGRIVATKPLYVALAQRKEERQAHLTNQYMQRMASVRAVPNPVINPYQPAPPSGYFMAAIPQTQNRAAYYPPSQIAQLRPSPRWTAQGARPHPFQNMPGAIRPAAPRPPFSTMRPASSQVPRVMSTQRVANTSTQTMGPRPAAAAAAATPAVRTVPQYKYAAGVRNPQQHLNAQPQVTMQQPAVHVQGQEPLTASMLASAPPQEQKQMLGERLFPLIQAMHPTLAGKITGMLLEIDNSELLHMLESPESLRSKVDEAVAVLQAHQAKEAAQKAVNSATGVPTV

[32] = target: T7, Polyadenylate-binding protein 1; assay: MLLE domain peptide-binding blockers, IC50 – biochemical, fluorescence polarization, FITC-PAM2 peptide, dose response (AID 602259); format: functional; settings: read-out: IC50_Mean

Cc1cc(C(=O)CN2C(=O)NC(C)(CC(C)C)C2=O)c(C)n1-c1ccc2c(c1)OCO2 (stereo not drawn)
IC50 [1]: 12.8 µM (active)
EC50 [2]: > 53 µM (inactive)
IC50 [3]: 2.36 µM (active)

CCOCCCn1c(SCc2nc3ccccc3s2)nc2ccccc2c1=O
EC50 [2]: > 53 µM (inactive)
AC50 [4]: 29.8 µM (active)
AC50 [5]: > 52 µM (inactive)
AC50 [6]: 34.6 µM (active)
AC50 [7]: 5.44 µM (active)

O=C(COc1ccc(F)cc1)Nc1ccc2c(c1)OCCO2
IC50 [8]: > 67.6 µM (inactive)
IC50 [9]: > 67.6 µM (inactive)

Cc1csc2c(=O)sc(NC(=O)c3cccs3)nc12
IC50 [10]: 8.33 µM (active)
IC50 [11]: 36.9 µM (inactive)

Cc1ccc(NC2=NC(=O)S/C2=C\c2ccco2)cc1
IC50 [12]: 7.28 µM (active)
IC50 [10]: > 80 µM (inactive)
IC50 [11]: 23.9 µM (inactive)

CCOC(=O)c1ccc(NC(=O)Nc2ccc3c(c2)OCCO3)cc1
AC50 [13]: 59.3 µM (active)

O=C(COC(=O)c1ccc(F)c(S(=O)(=O)N2CCOCC2)c1)Nc1ccc2[nH]c(=O)[nH]c2c1
IC50 [14]: 16.1 µM (active)
IC50 [15]: 25.9 µM (active)
IC50 [16]: > 66.6 µM (inactive)
IC50 [17]: 20.5 µM (inactive)

OC[C@@H]1CN(Cc2ccc(-c3ccccc3)cc2)C[C@H](n2cnc3c(Nc4ccccc4)ncnc32)O1
IC50 [18]: 7.72 µM (active)

Cc1ccc([C@H]2C(C(=O)O)=CC[C@@H](c3ccc(C)cc3)N2S(=O)(=O)c2ccc(C)cc2)cc1
IC50 [1]: 34.5 µM (active)
EC50 [2]: 50.2 µM (active)
IC50 [3]: > 20 µM (inactive)

Clc1cccc(-c2nc3ccc(Br)cn3c2Cc2ccccc2)c1
IC50 [19]: > 100 µM (inactive)
IC50 [8]: > 67.5 µM (inactive)
IC50 [9]: > 67.5 µM (inactive)

C[C@@H]1CCCCO[C@H](CN(C)S(=O)(=O)c2ccccc2)[C@H](C)CN([C@@H](C)CO)C(=O)c2cc(NS(=O)(=O)c3ccc(Cl)cc3)ccc2O1
AC50 [20]: 6.18 µM (active)
AC50 [21]: 46.7 µM (active)
AC50 [22]: > 70 µM (inactive)

O=C(C[C@@H]1CC[C@@H]2[C@H](COC[C@H](O)CN2Cc2ccc3c(c2)OCO3)O1)Nc1ccc(-c2ccccc2)cc1
AC50 [20]: 9.11 µM (active)
AC50 [23]: 41.8 µM (active)

CC(=O)N(C)C1=C(Cl)C(=O)c2ccccc2C1=O
IC50 [24]: 20.4 µM (inactive)

O=C(Nc1ccc(Cl)cc1)c1ccc2c(c1)OCCO2
IC50 [24]: 76.9 µM (active)

C[C@H]1CN([C@@H](C)CO)C(=O)c2cc(C#Cc3ccccc3)cnc2O[C@H]1CN(C)C(=O)c1ccccc1
AC50 [25]: 17.8 µM (active)
AC50 [26]: 1.99 µM (active)

C/C(=N\N=C(/N)SC1CC(=O)N(c2ccccc2)C1=O)c1cccs1 (stereo not drawn)
IC50 [27]: > 69.5 µM (inactive)

O=C(O)c1ccc2c(c1)C(=O)/C(=C/c1ccccc1)C2=O
CC50 [28]: > 40 µM (active)
IC50 [29]: 12.2 µM (active)
IC50 [30]: 3.5 µM (active)
IC50 [31]: > 66 µM (inactive)
IC50 [32]: > 66 µM (inactive)
AC50 [13]: 37.7 µM (active)
